Entries after “also recorded” stand apart in the source; their conditions may differ.
Tested on: U-937 blood cancer cell line
Test: MTT in vitro cytotoxicity assay
Type: cell-based
Conditions: U-937, MTT assay
Description: For cytotoxicity assays, the anti-cancer compounds were prepared as a stock solution, to suit a universal 96 well plate map, at different concentrations in μM, and dissolved in DMSO dH2O. Working solutions were prepared in the culture medium and added to the wells 24 hours after seeding of 5 to 7×10^3 cells per well in 200 μL of fresh culture medium. DMSO (1%)/dH2O was used as the solvent control. The DMSO concentration was maintained at a concentration less than 1% (i.e., a non-toxic concentration). Microscopic cytological changes were monitored and photographed following exposure to different concentrations of the compounds for 24 and 48 hours using an inverted microscope. After the respective periods of treatment, plates were centrifuged and washed with fresh growth medium. Then, 20 μL of MTT solution [5 mg/mL in phosphate-buffered saline (PBS)] was added to each well, and the plates were wrapped with aluminum foil and incubated overnight at 37° C. The plates were centrifuged and the supernatants were removed carefully […]. The purple formazan product was dissolved in 100 μL of 100% DMSO. The absorbance was monitored at 570 nm (measurement) and 630 nm (reference) using a 96 well plate reader. Data were collected for four replicates each and used to calculate the median effect dose or concentration; i.e., IC50. […]

Substance	cytotoxicity (in words) (24 and 48 hours)	IC50 (24 hour incubation time, read-out: IC50 = concentration of drug required to inhibit growth of 50% of the cancer cells) [µM]
5′-benzyl-4′-(p-tolyl)-5-(trifluoromethoxy)spiro[3,2′]oxindolopyrrolidino-4′-(methylphenyl)-1″-styryl-5-benzylidene-spiro[3′.3″]piperidi-4″-one [Compound 4i]	most cytotoxic compound; also recorded: excellent cytotoxicity effects at the lowest concentrations	
bleomycin [reference compound]		16.2 ± 4.5
